{"source": "patent US10597388B2", "about": "“Pyridazinone herbicides” (FMC CORPORATION, priority 2014, dated 2020)", "test_in_all_cases": "Test E greenhouse herbicide test, pre- and postemergence", "type_in_all_cases": "in vivo", "key": {"[1]": {"system": "corn (Zea mays)", "in_short": "(§1)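 Greenhouse pots; preemergence on silt loam, postemergence on plants 1- to 4-leaf (2 to 18 cm) grown in peat, vermiculite and nutrient medium. Test chemicals formulated in non-phytotoxic solvent with surfactant. Ratings taken after 14 to 21 d.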"}, "[2]": {"system": "foxtail, green (green foxtail, Setaria viridis)", "details": "Preemergence", "in_short": "as §1"}, "[3]": {"system": "ragweed (common ragweed, Ambrosia elatior)", "in_short": "as §1"}, "[4]": {"system": "crabgrass, Brazilian (Brazilian crabgrass, Digitaria horizontalis)", "in_short": "as §1"}, "[5]": {"system": "johnsongrass (Sorghum halepense)", "details": "Preemergence", "in_short": "as §1"}, "[6]": {"system": "nightshade (eastern black nightshade, Solanum ptycanthum)", "details": "Preemergence", "in_short": "as §1"}, "[7]": {"system": "goosegrass (Eleusine indica)", "details": "Preemergence", "in_short": "as §1"}, "[8]": {"system": "pigweed, palmer (palmer pigweed, Amaranthus palmeri)", "in_short": "as §1"}, "[9]": {"system": "barnyardgrass (Echinochloa crus-galli)", "in_short": "as §1"}, "[10]": {"system": "Italian ryegrass (Lolium multiflorum)", "in_short": "as §1"}, "[11]": {"system": "kochia (Kochia scoparia)", "in_short": "as §1"}, "[12]": {"system": "surinam grass (Brachiaria decumbens)", "details": "Preemergence", "in_short": "as §1"}, "[13]": {"system": "nutsedge, yellow (yellow nutsedge, Cyperus esculentus)", "details": "Preemergence", "in_short": "as §1"}, "[14]": {"system": "crabgrass, large (large crabgrass, Digitaria sanguinalis)", "details": "Preemergence", "in_short": "as §1"}, "[15]": {"system": "waterhemp (common waterhemp, Amaranthus rudis)", "in_short": "as §1"}, "[16]": {"system": "sandbur (southem sandbur, Cenchrus echinatus)", "in_short": "as §1"}, "[17]": {"system": "velvetleaf (Abutilon theophrasti)", "details": "Preemergence", "in_short": "as §1"}, "[18]": {"details": "62 g ai/ha, Postemergence, scale 0 to 100 (0 no effect, 100 complete control)"}, "[19]": {"details": "62 g ai/ha, Preemergence, scale 0 to 100 (0 no effect, 100 complete control)"}, "[20]": {"details": "125 g ai/ha, Postemergence, scale 0 to 100 (0 no effect, 100 complete control)"}, "[21]": {"details": "125 g ai/ha, Preemergence, scale 0 to 100 (0 no effect, 100 complete control)"}, "[22]": {"details": "250 g ai/ha, Postemergence, scale 0 to 100 (0 no effect, 100 complete control)"}, "[23]": {"details": "Postemergence, 31 g ai/ha, visual, scale 0 no effect to 100 complete control"}, "[24]": {"details": "Preemergence, 31 g ai/ha, scale 0 to 100, 0 no effect, 100 complete control"}, "[25]": {"details": "Preemergence, 250 g ai/ha, visual, scale 0 no effect to 100 complete control"}, "[26]": {"details": "62 g ai/ha, scale 0 to 100 (0 no effect, 100 complete control)"}, "[27]": {"details": "125 g ai/ha, scale 0 to 100 (0 no effect, 100 complete control)"}, "[28]": {"details": "31 g ai/ha, scale 0 to 100, 0 no effect, 100 complete control"}, "[29]": {"details": "250 g ai/ha, visual, scale 0 no effect to 100 complete control"}}, "data": [{"smiles": "CCOC(=O)Oc1c(C)nn(C)c(=O)c1-c1c(C)sc2ccc(C)cc12", "note": "[Compound 82]", "values": [{"measurement": "Plant response rating, Corn", "setting": "[1]; [18]", "value": 0}, {"measurement": "Plant response rating, Corn", "setting": "[1]; [19]", "value": 0}, {"measurement": "Plant response rating, Corn", "setting": "[1]; [20]", "value": 0}, {"measurement": "Plant response rating, Corn", "setting": "[1]; [21]", "value": 0}, {"measurement": "Plant response rating, Corn", "setting": "[1]; [22]", "value": 0}, {"measurement": "Plant response rating, Corn", "setting": "[1]; [23]", "value": 0}, {"measurement": "Plant response rating, Corn", "setting": "[1]; [24]", "value": 0}, {"measurement": "Plant response rating, Corn", "setting": "[1]; [25]", "value": 5}, {"measurement": "Plant response rating, Foxtail, Green", "setting": "[2]; [26]", "value": 70}, {"measurement": "Plant response rating, Foxtail, Green", "setting": "[2]; [27]", "value": 75}, {"measurement": "Plant response rating, Foxtail, Green", "setting": "[2]; [28]", "value": 20}, {"measurement": "Plant response rating, Foxtail, Green", "setting": "[2]; [29]", "value": 90}, {"measurement": "Plant response rating, Ragweed", "setting": "[3]; [18]", "value": 90}, {"measurement": "Plant response rating, Ragweed", "setting": "[3]; [19]", "value": 80}, {"measurement": "Plant response rating, Ragweed", "setting": "[3]; [20]", "value": 90}, {"measurement": "Plant response rating, Ragweed", "setting": "[3]; [21]", "value": 100}, {"measurement": "Plant response rating, Ragweed", "setting": "[3]; [22]", "value": 90}, {"measurement": "Plant response rating, Ragweed", "setting": "[3]; [23]", "value": 85}, {"measurement": "Plant response rating, Ragweed", "setting": "[3]; [24]", "value": 85}, {"measurement": "Plant response rating, Ragweed", "setting": "[3]; [25]", "value": 100}, {"measurement": "Plant response rating, Crabgrass, Brazil", "setting": "[4]; [18]", "value": 30}, {"measurement": "Plant response rating, Crabgrass, Brazil", "setting": "[4]; [19]", "value": 100}, {"measurement": "Plant response rating, Crabgrass, Brazil", "setting": "[4]; [20]", "value": 50}, {"measurement": "Plant response rating, Crabgrass, Brazil", "setting": "[4]; [21]", "value": 100}, {"measurement": "Plant response rating, Crabgrass, Brazil", "setting": "[4]; [22]", "value": 50}, {"measurement": "Plant response rating, Crabgrass, Brazil", "setting": "[4]; [23]", "value": 20}, {"measurement": "Plant response rating, Crabgrass, Brazil", "setting": "[4]; [24]", "value": 75}, {"measurement": "Plant response rating, Crabgrass, Brazil", "setting": "[4]; [25]", "value": 100}, {"measurement": "Plant response rating, Johnsongrass", "setting": "[5]; [27]", "value": 35}, {"measurement": "Plant response rating, Johnsongrass", "setting": "[5]; [28]", "value": 0}, {"measurement": "Plant response rating, Johnsongrass", "setting": "[5]; [29]", "value": 50}, {"measurement": "Plant response rating, Nightshade", "setting": "[6]; [26]", "value": 98}, {"measurement": "Plant response rating, Nightshade", "setting": "[6]; [27]", "value": 98}, {"measurement": "Plant response rating, Nightshade", "setting": "[6]; [28]", "value": 90}, {"measurement": "Plant response rating, Nightshade", "setting": "[6]; [29]", "value": 100}, {"measurement": "Plant response rating, Goosegrass", "setting": "[7]; [26]", "value": 25}, {"measurement": "Plant response rating, Goosegrass", "setting": "[7]; [27]", "value": 70}, {"measurement": "Plant response rating, Goosegrass", "setting": "[7]; [28]", "value": 20}, {"measurement": "Plant response rating, Goosegrass", "setting": "[7]; [29]", "value": 90}, {"measurement": "Plant response rating, Pigweed, Palmer", "setting": "[8]; [18]", "value": 60}, {"measurement": "Plant response rating, Pigweed, Palmer", "setting": "[8]; [19]", "value": 90}, {"measurement": "Plant response rating, Pigweed, Palmer", "setting": "[8]; [20]", "value": 75}, {"measurement": "Plant response rating, Pigweed, Palmer", "setting": "[8]; [21]", "value": 100}, {"measurement": "Plant response rating, Pigweed, Palmer", "setting": "[8]; [22]", "value": 65}, {"measurement": "Plant response rating, Pigweed, Palmer", "setting": "[8]; [23]", "value": 50}, {"measurement": "Plant response rating, Pigweed, Palmer", "setting": "[8]; [24]", "value": 90}, {"measurement": "Plant response rating, Pigweed, Palmer", "setting": "[8]; [25]", "value": 100}, {"measurement": "Plant response rating, Barnyardgrass", "setting": "[9]; [18]", "value": 40}, {"measurement": "Plant response rating, Barnyardgrass", "setting": "[9]; [19]", "value": 15}, {"measurement": "Plant response rating, Barnyardgrass", "setting": "[9]; [20]", "value": 50}, {"measurement": "Plant response rating, Barnyardgrass", "setting": "[9]; [21]", "value": 30}, {"measurement": "Plant response rating, Barnyardgrass", "setting": "[9]; [22]", "value": 50}, {"measurement": "Plant response rating, Barnyardgrass", "setting": "[9]; [23]", "value": 30}, {"measurement": "Plant response rating, Barnyardgrass", "setting": "[9]; [24]", "value": 0}, {"measurement": "Plant response rating, Barnyardgrass", "setting": "[9]; [25]", "value": 40}, {"measurement": "Plant response rating, Ryegrass, Italian", "setting": "[10]; [18]", "value": 70}, {"measurement": "Plant response rating, Ryegrass, Italian", "setting": "[10]; [19]", "value": 95}, {"measurement": "Plant response rating, Ryegrass, Italian", "setting": "[10]; [20]", "value": 75}, {"measurement": "Plant response rating, Ryegrass, Italian", "setting": "[10]; [21]", "value": 100}, {"measurement": "Plant response rating, Ryegrass, Italian", "setting": "[10]; [22]", "value": 80}, {"measurement": "Plant response rating, Ryegrass, Italian", "setting": "[10]; [23]", "value": 50}, {"measurement": "Plant response rating, Ryegrass, Italian", "setting": "[10]; [24]", "value": 75}, {"measurement": "Plant response rating, Ryegrass, Italian", "setting": "[10]; [25]", "value": 100}, {"measurement": "Plant response rating, Kochia", "setting": "[11]; [18]", "value": 98}, {"measurement": "Plant response rating, Kochia", "setting": "[11]; [19]", "value": 90}, {"measurement": "Plant response rating, Kochia", "setting": "[11]; [20]", "value": 95}, {"measurement": "Plant response rating, Kochia", "setting": "[11]; [21]", "value": 100}, {"measurement": "Plant response rating, Kochia", "setting": "[11]; [22]", "value": 98}, {"measurement": "Plant response rating, Kochia", "setting": "[11]; [23]", "value": 90}, {"measurement": "Plant response rating, Kochia", "setting": "[11]; [24]", "value": 20}, {"measurement": "Plant response rating, Kochia", "setting": "[11]; [25]", "value": 100}, {"measurement": "Plant response rating, Surinam Grass", "setting": "[12]; [26]", "value": 65}, {"measurement": "Plant response rating, Surinam Grass", "setting": "[12]; [27]", "value": 85}, {"measurement": "Plant response rating, Surinam Grass", "setting": "[12]; [28]", "value": 35}, {"measurement": "Plant response rating, Surinam Grass", "setting": "[12]; [29]", "value": 90}, {"measurement": "Plant response rating, Nutsedge, Yellow", "setting": "[13]; [26]", "value": 10}, {"measurement": "Plant response rating, Nutsedge, Yellow", "setting": "[13]; [27]", "value": 40}, {"measurement": "Plant response rating, Nutsedge, Yellow", "setting": "[13]; [28]", "value": 0}, {"measurement": "Plant response rating, Nutsedge, Yellow", "setting": "[13]; [29]", "value": 65}, {"measurement": "Plant response rating, Crabgrass, Large", "setting": "[14]; [26]", "value": 70}, {"measurement": "Plant response rating, Crabgrass, Large", "setting": "[14]; [27]", "value": 80}, {"measurement": "Plant response rating, Crabgrass, Large", "setting": "[14]; [29]", "value": 90}, {"measurement": "Plant response rating, Waterhemp", "setting": "[15]; [19]", "value": 90}, {"measurement": "Plant response rating, Waterhemp", "setting": "[15]; [20]", "value": 85}, {"measurement": "Plant response rating, Waterhemp", "setting": "[15]; [21]", "value": 100}, {"measurement": "Plant response rating, Waterhemp", "setting": "[15]; [22]", "value": 90}, {"measurement": "Plant response rating, Waterhemp", "setting": "[15]; [23]", "value": 70}, {"measurement": "Plant response rating, Waterhemp", "setting": "[15]; [24]", "value": 85}, {"measurement": "Plant response rating, Waterhemp", "setting": "[15]; [25]", "value": 100}, {"measurement": "Plant response rating, Sandbur", "setting": "[16]; [19]", "value": 35}, {"measurement": "Plant response rating, Sandbur", "setting": "[16]; [20]", "value": 70}, {"measurement": "Plant response rating, Sandbur", "setting": "[16]; [21]", "value": 60}, {"measurement": "Plant response rating, Sandbur", "setting": "[16]; [22]", "value": 75}, {"measurement": "Plant response rating, Sandbur", "setting": "[16]; [23]", "value": 50}, {"measurement": "Plant response rating, Sandbur", "setting": "[16]; [24]", "value": 0}, {"measurement": "Plant response rating, Sandbur", "setting": "[16]; [25]", "value": 75}, {"measurement": "Plant response rating, Velvetleaf", "setting": "[17]; [26]", "value": 75}, {"measurement": "Plant response rating, Velvetleaf", "setting": "[17]; [27]", "value": 95}, {"measurement": "Plant response rating, Velvetleaf", "setting": "[17]; [28]", "value": 0}, {"measurement": "Plant response rating, Velvetleaf", "setting": "[17]; [29]", "value": 98}]}]}
